“Also recorded” adds a separate entry of the source. Read-outs that look alike come from different tables or passages of the source.
What was measured:
rats = assay: Rotational asymmetry after apomorphine; assay type: in vivo, rat; details: apomorphine 0.4 mg/kg, n=7
Procedure: (§1) Determination of DOPAL-induced Parkinson's disease-like behavior Injections of DOPAL or ALDH1A1 antisense oligo into rat SN. To determine if increased levels of DOPAL in SN produces a behavioral model of PD, 3 groups of rats were tested: unilateral SN injection of 4 μg DOPAL in 6 rats; unilateral SN injection of 0.56 μg antisense oligonucleotide (oligo) targeted to aldehyde dehydrogenase (ALDH1A1) mRNA, the DOPAL catabolic enzyme in 3 rats; 5 non-injected rats. After 5-7 weeks, rats were injected with apomorphine (0.4 mg/kg, subcutaneously) and rotational asymmetry determined in each group just prior to sacrifice. After the brains were fixed and sectioned, the SN, and forebrain were stained immunohistochemically for tyrosine hydroxylase immunoreactivity (THir). See Section 3.
Determination of rotational asymmetry. Rats first were injected subcutaneously with the dopamine agonist apomorphine (0.4 mg/kg) dissolved in 0.1 ascorbate saline solution. After waiting 5 min in their home cage, they were placed in a hemispheric rotation bowl 40 cm wide and 20 cm deep. Rotational behavior was then determined for 30 min and the number of ipsilateral and contralateral turns quantified by observation.
Rotational asymmetry was assessed to quantify the effect of unilateral depletions of striatal dopamine from disruptions of nigrostriatal circuitry. The rotational asymmetry behavior of rats (n=6) changed dramatically after injections with DOPAL (FIG. 5).
Behavioral asymmetry is considered the standard behavioral test for rodent models of Parkinson's disease. The column on the right is a summary of all the behaviors recorded in the rotational asymmetry test for all the rats ([…]).

ALDH1A1 = assay: Antisense inhibition of ALDH1A1 expression in rat substantia nigra, immunoblot; assay type: in vivo; details: 1 week or 2 weeks; for optical density of ALDH1A1 Western blot bands, ipsilateral vs contralateral: Unscan software
Procedure: Antisense inhibition of ALDH1A1 expression in rats.
The immunoreactive bands of the Western blot of FIG. 8 were analyzed by Unscan it soft ware (Silk Scientific) and their optical densities plotted in FIG. 9.

DA SN neurons = assay: TH and NeuN immunohistochemistry after ALDH1A1 antisense injections into substantia nigra; assay type: in vivo, rat
Procedure: as §1
An antisense compound was used to decrease expression of ALDH1A1, which is responsible for breaking down DOPAL within the neuronal cell body and its effects on dopamine SN neurons and behavior were examined (FIGS. 6, 7). Three unilateral injections (total 800 nl; 700 pg/nl) of an antisense compound oligonucleotide (SEQ ID NO: 1), directed against the enzyme ALDH1A1, and comprising a phosphorothioate backbone, were made into the substantia nigra nucleus of the rat. The injections were placed in the pars compacta portion of the substantia nigra, the subnucleus where most of the dopaminergic neurons are found.

α-synuclein = α-synuclein (Homo sapiens, UniProt P37840); assay: DOPAL-triggered α-synuclein aggregation in test tube, Western blot; assay type: biochemical; details: AS 2 μM, 37° C., up to 4 h, DOPAL 1.5-1,500 μM
Procedure: Determination of DOPAL-triggered α-synuclein aggregation in vitro. Western blot of DOPAL-triggered AS aggregation in test tube experiments. DOPAL was dissolved in 1% benzyl alcohol, then diluted to a final concentration of 1.5-1,500 μM as described previously. AS (2 μM) was incubated at 37° C. in 20 μl of 100 mM tris-HCl buffer (pH 7.2) with or without DA, DOPAL, DOPAC, or homovanillic acid (HVA) for up to 4 h. The reaction was stopped by heating at 70° C. for 3 min in SDS buffer. The entire mixture was transferred to the appropriate gel (vide infra).
SDS-PAGE and immunoblotting. Ten micrograms of protein (estimated by Bio Rad protein reagent) was resolved by electrophoresis on 4-12% bis-tris gels run with MES SDS buffer, and 3-8% tris-acetate gels using tris-acetate running buffer. For immunoblotting, the protein was transferred to PVDF blotting membranes with […] pore size, blocked with 5% milk protein in tris buffered saline (TBS) containing 0.1% Tween 20, and incubated for 1 h with a AS 202 monoclonal antibody (1:2,500 dilution). Blots were washed five times with 5% milk protein in TBS and probed with horseradish peroxidase-conjugated anti-mouse secondary antibody (1:2,500). Blots were washed five times with TBS containing. 0.5% Tween 20 before detection with Super Signal (Pierce).
Western blot analysis was performed to analyze DOPAL-induced aggregation of α-synuclein (FIG. 1). […]

PC12 cells = assay: DOPAL toxicity in vitro, viable PC12 cell count (trypan blue)
Procedure: Determination of DOPAL toxicity in vitro Toxicity experiments were essentially as described previously. PC12 cultures were initially expanded in T-75 flasks with 20 ml Dulbecco's Modified Eagle's Medium supplemented with 4.5 g/l glucose, 4 mM L-glutamine, 5% fetal calf serum, 10% horse serum, 1000 units/l penicillin, and 100 mg/l streptomycin. Cells were transferred to six well culture plates with 2 ml media and grown to 1.5×10^5 cells/well, treated with 50 ng/ml nerve growth factor (NGF), and maintained in NGF-containing media for 7 d prior to experimentation. The medium was changed every 2-3 d. […] During the experiments, the medium was replaced once a day. Cells were detached with buffered saline containing EDT A, centrifuged at 200×g and resuspended in trypan blue for counting of viable cells. […] DOPAL and other compounds were added as described in the description of the figure and examples. Data was analyzed by ANOVA.
DOPAL, as well as other physiologically metabolites and adducts, were added to PC12 cells in culture at concentrations that were physiologically relevant.

ALDH = details: Lamensdorf et al. 2000; cited from earlier work
[1] = Experiment 1, 66 μM, None 299 ± 19

In the case of “5″-AGCAGACGATCTCTCTCCATT-3″ (DNA, backbone and methylation of C not given here) [Antisense 2, 21-base antisense oligonucleotide complementary to residues 313 to 333 of rat ALDH1A1 mRNA]”, the “rotational asymmetry after unilateral antisense injection into SN” value (rats) is reported as “dramatic shifts in its rotational preference”, the “ALDH1A1 protein, ipsilateral injected side vs contralateral side, Western blot” value (ALDH1A1) is reported as “Loss of ALDH1A1” and the “ALDH1A1 protein, ipsilateral injected side vs contralateral side, Western blot” value (ALDH1A1; listed as antisense 2) is reported as “loss of ALDH1A1 protein”. For the same compound, the “optical density of ALDH1A1 Western blot bands, ipsilateral vs contralateral” value (ALDH1A1) was “loss of ALDH1A1”.

With “5″-TGCAGGGGAAGACATTGCTGGT-3″ [Antisense 1]” the “rotational asymmetry after unilateral antisense injection into SN” value (rats) was “dramatic shifts in its rotational preference”, the “ALDH1A1 protein, ipsilateral injected side vs contralateral side, Western blot” value (ALDH1A1) was “Loss of ALDH1A1” and the “ALDH1A1 protein, ipsilateral injected side vs contralateral side, Western blot” value (ALDH1A1; listed as antisense 1) was “loss of ALDH1A1 protein”. The “optical density of ALDH1A1 Western blot bands, ipsilateral vs contralateral” value (ALDH1A1) was “loss of ALDH1A1”, the “neurons immediately adjacent to the injection site, Neun immunostaining” value (DA SN neurons; case R2504) was “have died” and the “intensity of TH staining in the injected SN” value (DA SN neurons; three unilateral injections, total 800 nl, 700 pg/nl) was “slightly less”. The “dopaminergic projections to rostral brain / ventral striatum, TH immunostaining” value (DA SN neurons; three unilateral injections, total 800 nl, 700 pg/nl, 5 or 7 weeks, listed as SEQ ID NO: 1) was “dramatically reduced; also recorded: absent/decreased”.

In the case of `NCCc1ccc(O)c(O)c1` [DA, dopamine], the “aggregation of α-synuclein oligomers in vitro” value (α-synuclein) is reported as “not”, the “toxic in vitro at physiological levels” value (PC12 cells) is reported as “not” and the “PC 12 cells/well × 103” value (PC12 cells; rat, 66 μM) is reported as 329 ± 21 cells/well × 103.

In the case of `O=C(O)Cc1ccc(O)c(O)c1` [DOPAC, 3,4-dihydroxyphenylacetic acid], the “toxic in vitro at physiological levels” value (PC12 cells) is reported as “not” and the “PC 12 cells/well × 103” value (PC12 cells; rat, 66 μM) is reported as 334 ± 10 cells/well × 103.

For `COc1cc(CC(=O)O)ccc1O` [HVA, homovanillic acid], the “PC 12 cells/well × 103” value (PC12 cells; [1]) was 322 ± 20 cells/well × 103 and the “toxic in vitro at physiological levels” value (PC12 cells; PC12 cells in culture) was “not”.

For `C=C(C)[C@H]1Cc2c(ccc3c2O[C@@H]2COc4cc(OC)c(OC)cc4[C@@H]2C3=O)O1` [Rotenone, rotenone], the “PC 12 cells/well × 103” value (PC12 cells; Experiment 2, 10 μM, None 143 ± 12) was 127 ± 9 cells/well × 103.

With `Oc1ccc(CC2NCCc3cc(O)c(O)cc32)cc1O` (stereo not shown) [Tetrahydropapaveroline] the “PC 12 cells/well × 103” value (PC12 cells; [1]) was 346 ± 15 cells/well × 103 and the “toxic in vitro at physiological levels” value (PC12 cells; PC12 cells in culture) was “not”.

For `O=c1c(-c2ccc(O)cc2)coc2cc(O)ccc12` [daidzein], the “inhibiting ALDH in PC-12 cells” value (ALDH) is listed as “effective”.
